Laboratory results as given in patent US20140275078A1, “COMPOSITIONS AND METHODS FOR TREATING CANCER USING PI3KB INHIBITOR AND MAPK PATHWAY INHIBITOR, INCLUDING MEK AND RAF INHIBITORS” (SANOFI, priority 2011, published 2014).
Where two headings read alike, the source gives them in different places.

Legend:
[1] = system: human melanoma cell line WM-266-4; experiment: Cell proliferation (CelltiterGlo, ray design) in WM-266-4; assay type: cell-based; settings: example 3; single agent; 96 hours; 4-parameter logistic model
Procedure: UACC-62 cells were plated at 2500 cells/well in 96-well plates in appropriate culture medium and incubated 6 hours at 37° C., 5% CO2. […] Cell growth was evaluated by measuring intracellular ATP using CelltiterGlo® reagent (Promega) according to the manufacturer's protocol. Briefly, Cell Titer Glo was added to each plate, incubated for 1 hour then luminescent signal was read on the MicroBeta Luminescent plate reader. All plates were run in duplicate. All assays were run at least in duplicate.
Inhibition of cell growth was estimated after treatment with compound or combination of compounds for four days and comparing the signal to cells treated with vehicle (DMSO).
Growth inhibition percentage (GI %) was calculated according to the following equation: GI %=100*(1−((X−BG)/(TC−BG))
A global non linear mixed model using NLMIXED procedure of SAS V9.2 was applied to fit simultaneously the concentration-responses curves for each ray. The combination index
of each ray i and its 95% confidence interval was then estimated using the following equation: […]
where IC40A and IC40B are the concentrations of compound A and compound B necessary to obtain 40% of inhibition for each compound alone and CA and CB are the concentrations of compound A and compound B in the mixture necessary to obtain 40% of inhibition.
The human melanoma WM-266-4 cell line was purchased at ATCC (Ref number CRL-1676 Batch 3272826). The WM-266-4 cells were cultured in RPMI1640 medium supplemented with 10% FBS and 2 mM L-Glutamine.
Materials and Methods are the same described in example 1.
The human melanoma WM-266-4 cell line was purchased at ATCC (Ref number CRL-1676 Batch 3272826). The WM-266.4 cells were cultured in RPMI1640 medium supplemented with 10% FBS and 2 mM L-Glutamine.

[2] = system: human melanoma tumors UACC-62; experiment: Antitumor activity against subcutaneous UACC-62 tumors in SCID female mice; settings: Ex. 6, Cpd (I) 151.5 mg/kg bid, alone or combined
[3] = molecular target: PI3K gamma (Homo sapiens, UniProt P48736); settings: cited from earlier work
[4] = system: human melanoma tumors WM-266.4; settings: Ex. 7, Cpd (I) 150 mg/kg bid, alone or combined
[5] = Chemical stability of dosing stock solution; settings: oral dosing formulation of each compound; in the dark at RT
[6] = PO d8-15, Cpd (2b) 100 mg/kg qd

PI3K gamma, sequence (P48736 whole entry): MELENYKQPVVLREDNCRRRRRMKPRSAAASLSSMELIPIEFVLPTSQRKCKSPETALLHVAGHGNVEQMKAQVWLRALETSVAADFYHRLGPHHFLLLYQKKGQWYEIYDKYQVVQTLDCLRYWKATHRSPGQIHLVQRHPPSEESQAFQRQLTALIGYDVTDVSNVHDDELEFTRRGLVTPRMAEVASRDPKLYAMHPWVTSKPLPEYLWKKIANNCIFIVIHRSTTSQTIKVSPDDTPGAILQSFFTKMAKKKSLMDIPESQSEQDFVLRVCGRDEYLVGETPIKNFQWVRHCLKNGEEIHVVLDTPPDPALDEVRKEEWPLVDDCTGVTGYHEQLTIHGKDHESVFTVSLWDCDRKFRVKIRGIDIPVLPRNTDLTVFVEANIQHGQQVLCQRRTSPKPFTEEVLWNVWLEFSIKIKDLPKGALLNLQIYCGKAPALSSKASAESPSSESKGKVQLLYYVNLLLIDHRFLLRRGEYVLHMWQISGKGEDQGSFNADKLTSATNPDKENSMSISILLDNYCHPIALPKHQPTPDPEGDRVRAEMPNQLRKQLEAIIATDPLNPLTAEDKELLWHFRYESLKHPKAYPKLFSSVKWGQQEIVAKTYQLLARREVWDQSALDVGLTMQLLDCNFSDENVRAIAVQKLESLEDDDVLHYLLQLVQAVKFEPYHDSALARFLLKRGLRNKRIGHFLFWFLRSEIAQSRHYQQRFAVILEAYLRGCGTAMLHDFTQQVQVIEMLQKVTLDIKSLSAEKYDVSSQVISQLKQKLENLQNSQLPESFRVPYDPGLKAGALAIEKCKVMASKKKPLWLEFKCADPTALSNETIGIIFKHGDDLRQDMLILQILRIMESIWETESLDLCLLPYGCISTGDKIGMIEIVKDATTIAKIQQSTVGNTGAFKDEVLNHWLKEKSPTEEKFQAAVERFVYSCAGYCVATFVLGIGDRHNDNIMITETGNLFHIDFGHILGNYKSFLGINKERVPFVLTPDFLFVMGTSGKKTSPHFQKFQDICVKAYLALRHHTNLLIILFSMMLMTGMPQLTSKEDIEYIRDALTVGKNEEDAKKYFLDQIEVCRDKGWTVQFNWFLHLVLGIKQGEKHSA

C[C@H]1Cc2ccccc2N1C(=O)Cc1nc(N2CCOCC2)cc(=O)[nH]1 [Compound (I), 2-{2-[(2S)-2-methyl-2,3-dihydro-1H-indol-1-yl]-2-oxoethyl}-6-(morpholin-4-yl)pyrimidin-4(3H)-one]
Absolute IC40 [1]: 0.834 µM | Tumor volume changes from baseline: Median (nMad) ([2]; Cpd (2b) 50 mg/kg qd, Day 11): 54 (62.3) | Tumor volume changes from baseline: Median (nMad) ([2]; Cpd (2b) 50 mg/kg qd, Day 13): 145 (71.2) | Tumor volume changes from baseline: Median (nMad) ([2]; Cpd (2b) 50 mg/kg qd, Day 15): 303 (63.8) | Tumor volume changes from baseline: Median (nMad) ([2]; Cpd (2b) 50 mg/kg qd, Global): 145 (89) | Tumor volume changes from baseline: Median (nMad) ([2]; Cpd (2b) 100 mg/kg qd, Day 11): 54 (62.3) | Tumor volume changes from baseline: Median (nMad) ([2]; Cpd (2b) 100 mg/kg qd, Day 13): 145 (71.2) | Tumor volume changes from baseline: Median (nMad) ([2]; Cpd (2b) 100 mg/kg qd, Day 15): 303 (63.8) | Tumor volume changes from baseline: Median (nMad) ([2]; Cpd (2b) 100 mg/kg qd, Global): 145 (89) | Average body weight change in % per mouse at nadir [2, 6]: −2.9% | Drug death (Day of death) [2, 6]: 0/7 | day of nadir [2, 6]: 15 days | ΔT/ΔC % (day 15) [2, 6]: 39% | IC50 [3]: > 10 µM | Tumor volume changes from baseline: Median (nMad) ([4]; Cpd (2b) 50 mg/kg qd, Day 24): 54 (53.4) | Tumor volume changes from baseline: Median (nMad) ([4]; Cpd (2b) 50 mg/kg qd, Day 27): 132 (62.3) | Tumor volume changes from baseline: Median (nMad) ([4]; Cpd (2b) 50 mg/kg qd, Day 29): 162 (47.4) | Tumor volume changes from baseline: Median (nMad) ([4]; Cpd (2b) 50 mg/kg qd, Day 31): 272 (20.8) | Tumor volume changes from baseline: Median (nMad) ([4]; Cpd (2b) 50 mg/kg qd, Global): 138 (100.8) | Tumor volume changes from baseline: Median (nMad) ([4]; Cpd (2b) 100 mg/kg qd, Day 24): 54 (53.4) | Tumor volume changes from baseline: Median (nMad) ([4]; Cpd (2b) 100 mg/kg qd, Day 27): 132 (62.3) | Tumor volume changes from baseline: Median (nMad) ([4]; Cpd (2b) 100 mg/kg qd, Day 29): 162 (47.4) | Tumor volume changes from baseline: Median (nMad) ([4]; Cpd (2b) 100 mg/kg qd, Day 31): 272 (20.8) | Tumor volume changes from baseline: Median (nMad) ([4]; Cpd (2b) 100 mg/kg qd, Global): 138 (100.8) | stock solution chemically stable [5]: 7 days
